Activity calls are given as the source filed them.
Experiments:
[1] = molecular target: RNA-editing ligase 1, mitochondrial (Trypanosoma brucei brucei, UniProt P86926); assay: inhibition of trypanosome RNA editing ligase – biochemical, fluorescence, Trypanosoma brucei, dose response (AID 1117295); format: functional
[2] = tested on: Streptococcus sp. 'group A'; assay: Streptococcus pyogenes SK(-)GAS viability under kanamycin – luminescence, BacTiterGlo, confirmation, counter-screen for streptokinase expression inhibitor project, dose response (AID 1900); format: functional, organism-based
[3] = molecular target: T1, Streptokinase A (Streptococcus pyogenes serotype M1, UniProt P10520); assay: viability-normalized secreted streptokinase activity reduction – plasminogen activation absorbance, OD405, dose response (AID 1914); format: functional, Streptococcus pyogenes M1 GAS;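 further: secreted streptokinase activity via plasminogen activation per viability signal from cell pellet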
T1 sequence (P10520 whole entry): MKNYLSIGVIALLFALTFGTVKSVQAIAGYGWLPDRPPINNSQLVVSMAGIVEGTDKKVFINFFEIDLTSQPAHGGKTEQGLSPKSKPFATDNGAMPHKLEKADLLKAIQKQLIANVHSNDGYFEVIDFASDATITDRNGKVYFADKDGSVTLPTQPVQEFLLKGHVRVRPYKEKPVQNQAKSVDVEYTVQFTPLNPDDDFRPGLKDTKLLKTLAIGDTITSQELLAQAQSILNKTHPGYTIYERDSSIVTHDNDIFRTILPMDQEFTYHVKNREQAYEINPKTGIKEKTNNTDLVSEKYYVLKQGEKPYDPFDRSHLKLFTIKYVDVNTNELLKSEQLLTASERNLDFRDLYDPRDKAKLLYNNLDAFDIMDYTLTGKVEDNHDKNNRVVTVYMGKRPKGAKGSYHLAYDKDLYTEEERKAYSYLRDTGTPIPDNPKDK

[4] = tested on: Streptococcus; assay: GAS UMAA2166 growth inhibition – luminescence, BacTiterGlo, counter-screen for streptokinase expression inhibitor project, dose response (AID 1915); format: functional, organism-based;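 further: potency for reduction of bacterial viability or growth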
[5] = Intein inhibitors as potential Tuberculosis drugs, a cytotoxicity screen. [Related pubchem assays (depositor defined):AID2221, AID2223, AID434968, AID435010, AID449749, AID449750, AID489010]; format: functional
[6] = molecular target: T2, Replicative DNA helicase DnaB (Mycobacterium tuberculosis, UniProt P9WMR3); assay: DnaB intein splicing inhibitors, dose response, biochemical, cell-free fluorescence (AID 449749); format: functional
T2 sequence (P9WMR3 whole entry): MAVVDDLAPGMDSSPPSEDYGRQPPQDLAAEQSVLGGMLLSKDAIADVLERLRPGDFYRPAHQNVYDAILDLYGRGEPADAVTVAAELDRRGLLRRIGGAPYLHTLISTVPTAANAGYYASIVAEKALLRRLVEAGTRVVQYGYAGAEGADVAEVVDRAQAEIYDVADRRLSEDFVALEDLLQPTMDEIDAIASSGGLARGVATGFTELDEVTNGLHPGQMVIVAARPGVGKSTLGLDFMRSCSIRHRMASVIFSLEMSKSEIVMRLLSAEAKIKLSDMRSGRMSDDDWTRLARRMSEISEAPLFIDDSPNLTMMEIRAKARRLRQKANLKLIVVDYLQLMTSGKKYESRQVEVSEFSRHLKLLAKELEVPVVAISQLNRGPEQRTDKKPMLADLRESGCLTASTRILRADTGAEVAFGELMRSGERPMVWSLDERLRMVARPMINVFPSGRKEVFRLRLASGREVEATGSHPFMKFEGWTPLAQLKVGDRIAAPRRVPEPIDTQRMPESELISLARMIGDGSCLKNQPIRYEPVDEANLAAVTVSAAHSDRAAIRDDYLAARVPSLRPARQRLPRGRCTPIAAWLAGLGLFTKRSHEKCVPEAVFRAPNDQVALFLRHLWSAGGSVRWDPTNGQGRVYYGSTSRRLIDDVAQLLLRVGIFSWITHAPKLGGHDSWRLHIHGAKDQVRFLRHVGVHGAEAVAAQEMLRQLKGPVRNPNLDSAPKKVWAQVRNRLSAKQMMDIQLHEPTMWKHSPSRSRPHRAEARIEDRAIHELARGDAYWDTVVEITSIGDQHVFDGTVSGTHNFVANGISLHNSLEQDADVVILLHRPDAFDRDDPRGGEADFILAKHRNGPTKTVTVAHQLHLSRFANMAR

[7] = molecular target: T3, Protein RecA (Mycobacterium tuberculosis, UniProt P9WHJ3); assay: Fluorescence Cell-Free Homogeneous Dose Retest to Identify Inhibitors of RecA-Intein Splicing Activity. [Related pubchem assays (depositor defined):AID2097, AID2223, AID489010, AID492950]; format: functional
T3 sequence (P9WHJ3 whole entry): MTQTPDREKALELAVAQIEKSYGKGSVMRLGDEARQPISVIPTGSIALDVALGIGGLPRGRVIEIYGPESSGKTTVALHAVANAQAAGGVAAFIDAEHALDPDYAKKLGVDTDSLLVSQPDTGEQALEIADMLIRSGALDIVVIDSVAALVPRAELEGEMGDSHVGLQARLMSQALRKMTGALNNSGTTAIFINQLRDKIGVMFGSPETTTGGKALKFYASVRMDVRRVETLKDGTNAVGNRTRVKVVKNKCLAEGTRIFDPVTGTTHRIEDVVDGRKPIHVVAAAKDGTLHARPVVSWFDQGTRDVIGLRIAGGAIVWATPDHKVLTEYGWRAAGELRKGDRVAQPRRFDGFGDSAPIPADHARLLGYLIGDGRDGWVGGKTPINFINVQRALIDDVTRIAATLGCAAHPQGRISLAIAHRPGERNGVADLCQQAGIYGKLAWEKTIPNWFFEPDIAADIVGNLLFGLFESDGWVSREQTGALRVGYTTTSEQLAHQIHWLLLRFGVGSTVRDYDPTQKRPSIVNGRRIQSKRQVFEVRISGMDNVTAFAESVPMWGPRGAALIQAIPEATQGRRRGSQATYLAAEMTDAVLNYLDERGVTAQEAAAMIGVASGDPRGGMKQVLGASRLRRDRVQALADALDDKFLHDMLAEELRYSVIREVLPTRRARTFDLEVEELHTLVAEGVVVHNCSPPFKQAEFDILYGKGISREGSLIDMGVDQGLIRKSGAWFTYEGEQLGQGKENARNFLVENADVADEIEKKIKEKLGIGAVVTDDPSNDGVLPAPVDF

[8] = tested on: INS1; assay: INS-1E survival protection against cytokine death – cell-based, luminescence, retest, dose response (AID 449756); format: functional; settings: Rattus norvegicus;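 further: cell death triggered by IL-1 beta plus TNF-alpha plus IFN-gamma mixture; protective hits raise ATP signal compared with cytokine alone wells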
[9] = molecular target: T4, Caspase-6 (Homo sapiens, UniProt P55212); assay: inhibition of CASP6 peptide cleavage – biochemical, VEID-R110 fluorescence, cherry-pick, dose response (AID 720632)
T4 sequence (P55212 whole entry): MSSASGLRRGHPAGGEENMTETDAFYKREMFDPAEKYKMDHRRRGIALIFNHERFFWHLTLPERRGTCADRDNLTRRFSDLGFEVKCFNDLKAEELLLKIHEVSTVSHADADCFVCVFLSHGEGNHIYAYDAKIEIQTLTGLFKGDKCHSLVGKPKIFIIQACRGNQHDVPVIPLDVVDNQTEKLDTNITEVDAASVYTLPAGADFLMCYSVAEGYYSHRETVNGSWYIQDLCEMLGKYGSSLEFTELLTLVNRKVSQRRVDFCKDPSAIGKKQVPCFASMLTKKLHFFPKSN

[10] = molecular target: E3 ubiquitin-protein ligase UHRF1 (Homo sapiens, UniProt Q96T88); assay: Counterscreen for inhibitors of 5-meCpG-binding domain protein 2 (MBD2): TRFRET-based biochemical high throughput dose response assay to identify inhibitors of binding of ubiquitin-like with PHD and ring finger domains 1 (UHRF1) to methylated oligonucleotide.
[11] = luciferase reporter signal suppression in cells – H4 neuroglioma cells, luminescence, dose response (AID 1990); format: functional, cell-based
[12] = luciferase reporter signal reduction – luminescence, H4-C neuroglioblastoma cells, dose response (AID 2458); format: functional, cell-based;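 further: H4 neuroglioblastoma cells stably carrying a luciferase reporter gene fusion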
[13] = cells; format: functional, cell-based
[14] = alpha-synuclein stem-loop luciferase translation blockers – H4 neuroglioma cells, luminescence, confirmation (AID 1988); format: functional, cell-based
[15] = alpha-synuclein stem-loop translation blockers – luminescence, H4 neuroglioblastoma cells, dose confirmation, confirmation (AID 2454); format: functional, cell-based;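 further: H4 neuroglioblastoma cells carrying an alpha-synuclein 5'UTR luciferase reporter; potency for inhibition of the luciferase signal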
[16] = HEK-293T viability loss after treatment – luminescence, T-cell screen hits, cytotoxicity control for TCR NF-kB inhibitor project, dose response (AID 489026); format: functional, cell-based;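 further: cells exposed to compound about 14 hours before the viability readout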
[17] = cells; format: functional, cell-based; remark: listed apart in the source
[18] = molecular target: T5, Nuclear receptor subfamily 0 group B member 1 (Homo sapiens, UniProt P51843); format: functional, cell-based;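 further: HEK293T cells transfected with SF-1 and DAX-1 plus StAR promoter luciferase reporter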
T5 sequence (P51843 whole entry): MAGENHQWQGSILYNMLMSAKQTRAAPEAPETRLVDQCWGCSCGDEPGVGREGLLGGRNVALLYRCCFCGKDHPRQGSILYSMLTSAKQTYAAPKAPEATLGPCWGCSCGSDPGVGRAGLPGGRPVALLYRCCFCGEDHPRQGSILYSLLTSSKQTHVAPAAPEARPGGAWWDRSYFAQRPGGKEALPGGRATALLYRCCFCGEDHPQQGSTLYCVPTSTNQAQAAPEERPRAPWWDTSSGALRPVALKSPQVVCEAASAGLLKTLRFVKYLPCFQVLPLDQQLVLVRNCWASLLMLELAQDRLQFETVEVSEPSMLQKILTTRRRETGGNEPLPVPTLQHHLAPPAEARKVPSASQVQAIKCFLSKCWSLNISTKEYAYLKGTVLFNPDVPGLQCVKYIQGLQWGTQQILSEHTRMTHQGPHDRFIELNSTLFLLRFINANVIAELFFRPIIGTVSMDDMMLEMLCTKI

[19] = molecular target: Paired box protein Pax-8 (Homo sapiens, UniProt Q06710); assay: PAX8 transcriptional activity inhibition in RMG-I – RMG-I cells, luciferase, cherry-pick, dose response (AID 687027); format: functional, cell-based;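 further: luciferase reporter driven by Pax8 target thyroperoxidase promoter measured by SteadyGlo luminescence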
[20] = inhibitors acting on PAX2 in cells – cell-based, plate reader, dry powder samples, selectivity assay for PAX8 inhibitor project, dose response (AID 743048); format: functional;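 further: HEK293 cells carrying a WT1 promoter luciferase reporter driven by expressed Pax2; potency is for inhibition of Pax2 driven reporter signal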
[21] = COV362 cell viability loss – plate reader, dry powder, SA12, cytotoxicity control for PAX8 inhibitor project, dose response (AID 743144); format: functional, cell-based
[22] = toxicity toward immortalized ovarian surface epithelium – cell-based, plate reader, dry powder samples, cytotoxicity control for PAX8 inhibitor project, dose response (AID 743045); format: functional
[23] = A2780 cell killing – plate reader, dry powder samples, cytotoxicity control, dose response (AID 743046); format: functional, cell-based
[24] = OVCAR-3 cell viability loss – plate reader, dry powder samples, PAX8 inhibitor project, dose response (AID 743044); format: functional, cell-based
[25] = PAX5 cellular inhibition readout – cell-based, plate reader, dry powder samples, selectivity assay for PAX8 inhibitor project, dose response (AID 743047); format: functional;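 further: HEK293 cells carrying a Pax5 driven CD19 promoter luciferase reporter; potency of inhibitors that lower reporter luminescence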
[26] = IGROV1 cell killing – plate reader, dry powder samples, PAX8 inhibitor project, dose response (AID 743043); format: functional, cell-based; settings: IGROV-1
[27] = OVCAR4 cell viability loss – plate reader, dry powder, SA11, cytotoxicity control for PAX8 inhibitor project, dose response (AID 743150); format: functional, cell-based; settings: OVCAR-4
[28] = COV434 cell viability loss – plate reader, dry powder, SA7, cytotoxicity control for PAX8 inhibitor project, dose response (AID 743145); format: functional, cell-based
[29] = OV-90 cell viability loss – plate reader, dry powder, SA8, PAX8 inhibitor project, dose response (AID 743149); format: functional, cell-based
[30] = PAX8-dependent cell viability loss – plate reader, dry powder, dose response (AID 743049); format: functional, cell-based
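Wherever CC50 is given: cells exposed to compound for 72 hours before luminescence readout.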

Chain of Paired box protein Pax-8 (Q06710 whole entry): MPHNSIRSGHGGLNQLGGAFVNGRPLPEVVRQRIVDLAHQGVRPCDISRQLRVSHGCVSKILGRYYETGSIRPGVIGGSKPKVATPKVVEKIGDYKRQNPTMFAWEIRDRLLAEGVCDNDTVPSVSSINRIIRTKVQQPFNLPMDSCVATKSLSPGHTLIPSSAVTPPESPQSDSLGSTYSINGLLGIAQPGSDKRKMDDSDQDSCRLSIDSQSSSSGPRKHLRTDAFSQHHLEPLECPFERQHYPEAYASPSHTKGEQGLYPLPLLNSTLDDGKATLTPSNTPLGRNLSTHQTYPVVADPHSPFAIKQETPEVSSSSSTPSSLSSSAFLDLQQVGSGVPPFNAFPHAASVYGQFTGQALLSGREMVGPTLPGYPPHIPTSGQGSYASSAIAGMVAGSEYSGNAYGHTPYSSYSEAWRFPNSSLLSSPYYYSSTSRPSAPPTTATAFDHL
Chain of RNA-editing ligase 1, mitochondrial (P86926 whole entry): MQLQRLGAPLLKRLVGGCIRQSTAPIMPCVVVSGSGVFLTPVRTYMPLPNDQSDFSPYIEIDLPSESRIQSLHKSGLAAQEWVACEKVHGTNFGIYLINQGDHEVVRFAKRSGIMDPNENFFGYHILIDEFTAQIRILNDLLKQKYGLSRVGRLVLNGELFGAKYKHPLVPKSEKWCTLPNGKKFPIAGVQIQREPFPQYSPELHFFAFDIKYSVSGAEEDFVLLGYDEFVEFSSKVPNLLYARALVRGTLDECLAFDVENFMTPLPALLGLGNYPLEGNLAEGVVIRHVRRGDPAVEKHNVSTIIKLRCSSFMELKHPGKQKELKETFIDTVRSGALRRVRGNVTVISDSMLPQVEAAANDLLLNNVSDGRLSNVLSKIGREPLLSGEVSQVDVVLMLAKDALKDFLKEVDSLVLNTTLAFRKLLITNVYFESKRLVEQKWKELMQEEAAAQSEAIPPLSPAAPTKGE
Chain of E3 ubiquitin-protein ligase UHRF1 (Q96T88 whole entry, the tested form may be a part): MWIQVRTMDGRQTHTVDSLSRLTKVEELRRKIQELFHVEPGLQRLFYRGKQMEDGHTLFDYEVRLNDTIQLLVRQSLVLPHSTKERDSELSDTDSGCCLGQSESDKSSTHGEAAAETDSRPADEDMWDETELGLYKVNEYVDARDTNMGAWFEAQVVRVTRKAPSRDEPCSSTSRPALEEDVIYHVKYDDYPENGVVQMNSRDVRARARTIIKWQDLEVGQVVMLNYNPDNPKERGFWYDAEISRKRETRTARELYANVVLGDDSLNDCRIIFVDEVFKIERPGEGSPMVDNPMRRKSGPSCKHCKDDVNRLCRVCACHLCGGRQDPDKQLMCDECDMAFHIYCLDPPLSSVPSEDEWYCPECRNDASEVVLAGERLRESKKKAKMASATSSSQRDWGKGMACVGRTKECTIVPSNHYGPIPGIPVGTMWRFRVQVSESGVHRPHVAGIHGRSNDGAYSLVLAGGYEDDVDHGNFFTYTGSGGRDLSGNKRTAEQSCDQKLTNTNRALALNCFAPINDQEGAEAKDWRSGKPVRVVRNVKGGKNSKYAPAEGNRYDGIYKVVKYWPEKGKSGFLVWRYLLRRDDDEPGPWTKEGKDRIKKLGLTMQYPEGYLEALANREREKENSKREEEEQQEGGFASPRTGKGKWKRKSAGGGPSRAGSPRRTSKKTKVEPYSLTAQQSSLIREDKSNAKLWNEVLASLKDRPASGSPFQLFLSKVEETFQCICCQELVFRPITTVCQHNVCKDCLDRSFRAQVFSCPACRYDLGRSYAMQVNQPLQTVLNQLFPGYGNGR

## C=CCNC1=NC(c2ccccc2C(F)(F)F)C(C(=O)OC)=C(C)N1Cc1cccc(C(F)(F)F)c1 (stereo not given)
[1]
  IC50: > 96.6 µM (inactive)

## CCN(CC)CCNC(=O)c1ccc2c(c1NCCO)C(=O)c1ccccc1C2=O
[2]
  EC50: 12.9 µM (active)
[3]
  EC50: > 150 µM (not active)
[4]
  EC50: > 150 µM (not active)
[5]
  CC50: 26.2 µM (active)
[6]
  AC50: 4.5 µM (active)
[7]
  EC50: 524 nM (active)
[8]
  AC50: 4.09 µM (active)
[9]
  AC50: 5.96 µM (active)
[10]
  IC50: > 43.8 µM (inactive)

## CN[C@H]1CCc2cc(OC)c(OC)c(OC)c2-c2ccc(OC)c(=O)cc21 [DEMECOLCINE]
[11]
  EC50: < 100 nM (active)
[12]
  EC50: 78 nM (active)
[13]
  EC50: 80 nM (active)
[14]
  EC50: < 100 nM (active)
[15]
  EC50: 85 nM (active)
[16]
  IC50: > 80 µM (inactive)
[17]
  IC50: > 67.6 µM (inactive)
[18]
  IC50: > 834 nM (active)
[19]
  AC50: < 260 nM (active)
[20]
  AC50: 217 nM (active)
[21]
  AC50: 96.6 nM (active)
[22]
  AC50: 113 nM (active)
[23]
  AC50: 234 nM (active)
[24]
  AC50: 318 nM (active)
[25]
  AC50: > 100 µM (inactive)
[26]
  AC50: 6.35 µM (active)
[27]
  AC50: 113 nM (active)
[28]
  AC50: 61.5 nM (active)
[29]
  AC50: 48.8 nM (active)
[30]
  AC50: 96.7 nM (active)
